Test results reported in ChEMBL document CHEMBL1125988, “Restricted rotation analogs of decarboxylated S-adenosylmethionine as inhibitors of polyamine biosynthesis” (Bioorg Med Chem Lett, 1991).

Columns and labels:
[1] = Lethal dose of compound towards active site probes for spermidine and spermine synthase in L1210 cultured cell assay,; type: toxicity, cell-based; conditions: mouse, L1210 cells; read-out: LD50 (the source's name)
L1210 [2] = experiment: Ornithine decarboxylase activity was measured by the enzymatic decarboxylation of L-[14C-COOH]-ornithine as nmol CO2 produced per hour per mg of protein in L1210 cells; type: functional, Mus musculus
L1210 [3] = experiment: Cellular polyamine (spermine) content was determined in L1210 cells.; type: functional, Mus musculus
L1210 [4] = experiment: Tested for inhibitory activity on cultured L1210 cells; type: functional, cell-based; conditions: Mus musculus
L1210 [5] = experiment: S-adenosyl-methionine decarboxylase activity was measured by the enzymatic decarboxylation of L-[14C-COOH]-methionine as nmol CO2 produced per hour per mg of protein in L1210 cells; type: functional, Mus musculus
L1210 [6] = experiment: Compound was evaluated for % of growth control in cultured L1210 cells; type: functional, Mus musculus
L1210 [7] = experiment: Cellular polyamine (putrescine) content was determined in L1210 cells.; type: functional, Mus musculus
L1210 [8] = experiment: Cellular polyamine (SPD) content was determined in L1210 cells.; type: functional, Mus musculus

Structure (SMILES) | CC50 [1] [µM] | Activity (L1210 [2]) | Cellular content (L1210 [3]) | IC50 (L1210 [4]) [µM] | Activity (L1210 [5]) | Growth (L1210 [6]) [%] | Cellular content (L1210 [7]) | Cellular content (L1210 [8])
Nc1ncnc2c1ncn2[C@@H]1O[C@H](CSC2CCNC2)[C@@H](O)[C@H]1O (stereo partly specified) | 100 | 2.98 (nM of CO2) hr-1 mg-1 | 1000 pM (10e6*cells)-1 | 100 | 367 (nM of CO2) hr-1 mg-1 | 46 | 37 pM (10e6*cells)-1 | 410 pM (10e6*cells)-1
Br.C[S+](C[C@H]1O[C@@H](n2cnc3c(N)ncnc32)[C@H](O)[C@@H]1O)C1CCNC1.[Br-] (stereo partly specified) | 1000 | 6.16 (nM of CO2) hr-1 mg-1 | 1290 pM (10e6*cells)-1 | 1000 | 500 (nM of CO2) hr-1 mg-1 | 58 | 170 pM (10e6*cells)-1 | 208 pM (10e6*cells)-1
